From patent US10994015B2, “EGFR proteolysis targeting chimeric molecules and associated methods of use” (Arvinas Operations, Inc., priority 2016, dated 2021)
pIC50: −log10 of the molar value. Blank lines part the entries; values can stand above or below the molecule they belong to.

Columns and labels:
[1] = molecular target: WT EGFR (Homo sapiens (Human), UniProt P00533); assay: Immunoblot of EGFR degradation in OVCAR8 cells; assay type: cell-based; settings: 24 hours
Experimental: (§1) Cells were treated with the indicated concentrations of PROTAC or corresponding inhibiting diastereomer for the specified time and then harvested in lysis buffer (25 mM Tris.HCl pH 7.5 with 1% NP-40 and 0.25% deoxycholate, supplemented with 10 mM sodium pyrophosphate, 20 mM ß-glycerophosphate, 10 mM sodium fluoride, 1 mM sodium orthovanadate, 0.1 mM phenylarsine oxide, 10 μg/ml leupeptin, 10 μg/ml pepstatin A, 30 μg/ml bestatin, 0.3 trypsin inhibitor units/ml aprotinin and 1 mM PMSF). Following centrifugation at 16,000×g for 10 min at 4° C. to pellet insoluble materials, the protein concentrations of the supernatants were quantitated by BCA assay (Thermo Fisher Scientific). Protein samples were resolved by 8% SDS-PAGE, electrophoretically transferred to nitrocellulose and probed with the antibodies listed above. Immunoblots were developed using enhanced chemiluminescence and visualized using a Bio-Rad Chemi-Doc MP Imaging System and quantitated with Image Lab v.5.2.1 software (Bio-Rad Laboratories).

[2] = molecular target: L858R EGFR (Homo sapiens (Human), UniProt P00533, L858R); assay: Immunoblot of EGFR degradation in H3255 cells; assay type: cell-based; settings: 24 hours
Experimental: as §1

[3] = molecular target: exon-19 deletion EGFR (Homo sapiens (Human), UniProt P00533, DEL746-750); assay: Immunoblot of EGFR degradation in HCC827 cells; assay type: cell-based; settings: 24 hours
Chain of exon-19 deletion EGFR (P00533 other isoform, or with tags, fused parts or gaps del 746-750): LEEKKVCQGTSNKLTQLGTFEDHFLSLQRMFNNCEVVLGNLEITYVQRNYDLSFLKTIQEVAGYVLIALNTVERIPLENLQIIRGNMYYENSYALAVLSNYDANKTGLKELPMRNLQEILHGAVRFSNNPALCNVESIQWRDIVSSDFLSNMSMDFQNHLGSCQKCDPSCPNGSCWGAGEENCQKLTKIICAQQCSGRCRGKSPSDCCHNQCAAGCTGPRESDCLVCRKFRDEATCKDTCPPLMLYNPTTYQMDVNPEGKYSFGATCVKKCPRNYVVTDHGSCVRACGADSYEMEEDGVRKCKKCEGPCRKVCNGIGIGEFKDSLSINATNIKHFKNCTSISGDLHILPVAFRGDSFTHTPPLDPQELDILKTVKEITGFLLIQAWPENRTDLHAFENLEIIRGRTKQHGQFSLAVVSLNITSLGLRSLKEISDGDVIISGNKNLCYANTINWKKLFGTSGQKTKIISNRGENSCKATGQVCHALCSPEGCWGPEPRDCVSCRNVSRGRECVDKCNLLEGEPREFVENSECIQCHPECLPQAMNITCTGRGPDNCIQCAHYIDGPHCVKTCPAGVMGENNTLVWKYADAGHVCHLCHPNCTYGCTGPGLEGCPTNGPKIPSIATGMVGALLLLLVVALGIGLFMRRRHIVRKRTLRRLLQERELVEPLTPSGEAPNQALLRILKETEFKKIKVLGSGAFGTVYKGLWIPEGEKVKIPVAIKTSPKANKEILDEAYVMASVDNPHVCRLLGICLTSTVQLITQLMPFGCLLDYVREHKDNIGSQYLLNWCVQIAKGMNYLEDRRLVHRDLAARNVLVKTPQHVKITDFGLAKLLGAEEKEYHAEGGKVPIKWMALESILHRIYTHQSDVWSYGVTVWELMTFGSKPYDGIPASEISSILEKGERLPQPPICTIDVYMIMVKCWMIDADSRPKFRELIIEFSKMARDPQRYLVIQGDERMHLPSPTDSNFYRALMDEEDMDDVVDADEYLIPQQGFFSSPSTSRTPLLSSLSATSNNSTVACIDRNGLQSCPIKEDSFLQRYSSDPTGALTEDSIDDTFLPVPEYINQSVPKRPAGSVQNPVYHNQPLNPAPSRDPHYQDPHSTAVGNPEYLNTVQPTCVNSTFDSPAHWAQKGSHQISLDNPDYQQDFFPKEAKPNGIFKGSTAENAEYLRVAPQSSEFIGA
Experimental: as §1

[4] = molecular target: HER3 (Homo sapiens (Human), UniProt P21860); assay: TR-FRET assay for ERBB kinases; assay type: biochemical; settings: geometric mean if measured more than once
[5] = molecular target: EGFR Exon20NPG (Homo sapiens (Human), UniProt P00533, INS770NPG); assay: TR-FRET assay for ERBB kinases; assay type: biochemical; settings: geometric mean if measured more than once
In short: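 Compounds pre-incubated 10 min with kinase in HEPES pH 7.5 buffer (MgCl2, DTT, Pluronic), then reaction started with substrate mix (3 mM ATP, 30 µM fluorescein-poly-GluTyr, stock levels) for 10 min at room temperature. EDTA-quenched, detected by Tb-pY20 antibody TR-FRET (520/490 nm emission).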

[6] = molecular target: EGFR-wt (MDA-MB-231 or MCF7 or A549 or OVCAR8) (Homo sapiens (Human), UniProt P00533); assay: EGFR protein degradation assay (Western blot); assay type: cell-based; settings: 72 hours, 300 nM to 10 nM
In short: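 Cells carrying the relevant EGFR form were plated at 300,000 per well in 6-well plates and left overnight to attach. For harvest, cells were rinsed once in ice-cold PBS and lysed in 400 μl lysis buffer containing protease inhibitors. Lysates were cleared at 10 000 rpm for 10 minutes and their protein content measured by BCA. Then 10 μg per sample was separated by SDS/PAGE at 165V for 2 hours, and EGFR was detected by ECL on a Chemidoc.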

[7] = molecular target: EGFR-Δ19 (HCC827) (Homo sapiens (Human), UniProt P00533, DEL746-750); assay: EGFR protein degradation assay (Western blot); assay type: cell-based; settings: 72 hours, 300 nM to 10 nM
Chain of EGFR-Δ19 (HCC827) (P00533 other isoform, or with tags, fused parts or gaps del 746-750): as above

[8] = molecular target: EGFR L858R/T790M double mutant (H1975) (Homo sapiens (Human), UniProt P00533, L858R/T790M); assay: EGFR protein degradation assay (Western blot); assay type: cell-based; settings: 72 hours, 300 nM to 10 nM
In short: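 Cells carrying the relevant EGFR form were plated at 300,000 cells per well in 6-well plates and left to attach overnight. After washing in ice-cold PBS, cells were lysed in 400 μl lysis buffer with protease inhibitors, scraped, and clarified at 10 000 rpm for 10 minutes. EGFR levels were then assessed by Western blot with tubulin as loading control.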

[9] = molecular target: EGFR Exon 20 ASV (HeLa*) (Homo sapiens (Human), UniProt P00533, DUP767-769); assay: EGFR protein degradation assay (Western blot); assay type: cell-based; settings: 72 hours, 300 nM to 10 nM
[10] = molecular target: EGFR L858R/T790M (Homo sapiens (Human), UniProt P00533, L858R/T790M); assay: TR-FRET assay for ERBB kinases; assay type: biochemical; settings: geometric mean if measured more than once
In short: (§2)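 Read-out is TR-FRET between a terbium anti-phosphotyrosine (pY20) antibody and phosphorylated fluorescein-labelled poly-GluTyr, excited at 340 nm with donor 490 nm and acceptor 520 nm emission. Phosphorylation ran 10 min at room temperature after a 10 min compound–enzyme pre-incubation. The substrate mix contained 3 mM ATP.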

[11] = molecular target: EGFR WT (Homo sapiens (Human), UniProt P00533); assay: TR-FRET assay for ERBB kinases; assay type: biochemical; settings: geometric mean if measured more than once
Chain of EGFR WT (P00533 25-1210): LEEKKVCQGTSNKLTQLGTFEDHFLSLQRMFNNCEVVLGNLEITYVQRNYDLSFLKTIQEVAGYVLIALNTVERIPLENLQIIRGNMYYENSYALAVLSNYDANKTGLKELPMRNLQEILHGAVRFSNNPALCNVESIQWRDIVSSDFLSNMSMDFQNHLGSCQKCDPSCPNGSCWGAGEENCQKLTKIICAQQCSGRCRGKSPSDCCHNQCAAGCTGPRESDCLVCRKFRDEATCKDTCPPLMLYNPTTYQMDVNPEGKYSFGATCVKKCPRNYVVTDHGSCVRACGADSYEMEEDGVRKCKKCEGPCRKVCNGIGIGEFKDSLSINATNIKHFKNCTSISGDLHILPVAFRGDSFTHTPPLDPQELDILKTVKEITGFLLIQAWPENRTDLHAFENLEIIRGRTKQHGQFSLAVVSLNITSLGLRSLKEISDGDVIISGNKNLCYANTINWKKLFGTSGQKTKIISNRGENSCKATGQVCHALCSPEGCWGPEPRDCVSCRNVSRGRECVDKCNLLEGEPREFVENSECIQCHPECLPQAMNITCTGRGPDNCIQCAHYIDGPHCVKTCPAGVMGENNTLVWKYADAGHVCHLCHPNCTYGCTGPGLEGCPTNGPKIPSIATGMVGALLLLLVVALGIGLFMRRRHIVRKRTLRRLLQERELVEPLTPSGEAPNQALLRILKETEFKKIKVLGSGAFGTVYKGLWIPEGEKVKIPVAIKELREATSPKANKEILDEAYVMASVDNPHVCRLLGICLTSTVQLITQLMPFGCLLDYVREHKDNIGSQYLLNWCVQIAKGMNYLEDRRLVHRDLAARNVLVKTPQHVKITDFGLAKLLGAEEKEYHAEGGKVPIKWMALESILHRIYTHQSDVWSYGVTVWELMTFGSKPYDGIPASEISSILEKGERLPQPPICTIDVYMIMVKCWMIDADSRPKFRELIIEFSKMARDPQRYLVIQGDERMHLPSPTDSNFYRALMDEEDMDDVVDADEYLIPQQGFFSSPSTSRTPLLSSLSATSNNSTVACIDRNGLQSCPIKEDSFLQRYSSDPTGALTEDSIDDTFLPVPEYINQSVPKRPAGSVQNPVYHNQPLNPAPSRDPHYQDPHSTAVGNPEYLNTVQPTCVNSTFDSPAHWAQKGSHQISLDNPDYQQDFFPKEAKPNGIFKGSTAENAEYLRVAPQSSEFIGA
In short: as §2

[12] = molecular target: EGFR L858R/T790M/C797S (Homo sapiens (Human), UniProt P00533, C797S/L858R/T790M); assay: TR-FRET assay for ERBB kinases; assay type: biochemical; settings: geometric mean if measured more than once
Chain of EGFR L858R/T790M/C797S (P00533 25-1210 T790M/C797S/L858R): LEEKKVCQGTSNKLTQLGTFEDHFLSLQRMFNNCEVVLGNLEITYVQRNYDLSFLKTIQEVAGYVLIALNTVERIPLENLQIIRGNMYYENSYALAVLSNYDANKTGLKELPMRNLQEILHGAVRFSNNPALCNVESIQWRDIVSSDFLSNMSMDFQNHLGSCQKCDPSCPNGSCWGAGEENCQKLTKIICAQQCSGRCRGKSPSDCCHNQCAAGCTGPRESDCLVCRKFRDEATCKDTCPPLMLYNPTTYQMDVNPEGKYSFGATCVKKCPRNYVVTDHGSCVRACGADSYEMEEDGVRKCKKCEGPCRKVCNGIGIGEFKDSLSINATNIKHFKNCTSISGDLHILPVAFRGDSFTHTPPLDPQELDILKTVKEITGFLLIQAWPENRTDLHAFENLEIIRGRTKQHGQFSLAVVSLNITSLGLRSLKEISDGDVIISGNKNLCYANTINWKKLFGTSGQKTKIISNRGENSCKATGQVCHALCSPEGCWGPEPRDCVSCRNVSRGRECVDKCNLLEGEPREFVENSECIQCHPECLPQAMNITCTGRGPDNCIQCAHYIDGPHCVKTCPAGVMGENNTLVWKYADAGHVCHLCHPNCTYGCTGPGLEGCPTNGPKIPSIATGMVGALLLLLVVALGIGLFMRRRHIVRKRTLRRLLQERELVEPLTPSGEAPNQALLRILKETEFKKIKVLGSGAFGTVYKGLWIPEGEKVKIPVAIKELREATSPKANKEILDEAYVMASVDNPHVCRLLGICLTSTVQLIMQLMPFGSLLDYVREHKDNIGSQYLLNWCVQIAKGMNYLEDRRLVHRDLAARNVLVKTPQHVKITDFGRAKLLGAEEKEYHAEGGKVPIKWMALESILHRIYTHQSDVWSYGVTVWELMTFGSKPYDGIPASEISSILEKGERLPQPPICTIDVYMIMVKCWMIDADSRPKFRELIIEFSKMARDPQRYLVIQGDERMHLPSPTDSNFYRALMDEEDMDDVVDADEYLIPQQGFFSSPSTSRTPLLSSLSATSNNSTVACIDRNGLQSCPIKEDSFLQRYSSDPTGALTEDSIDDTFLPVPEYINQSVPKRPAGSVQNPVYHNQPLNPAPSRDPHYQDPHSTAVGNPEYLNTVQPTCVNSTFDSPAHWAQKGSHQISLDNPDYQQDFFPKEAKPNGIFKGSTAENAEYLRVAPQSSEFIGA
In short: as §2

[13] = test system: AKT phosphorylation; assay: HGF-driven AKT phosphorylation in MDA-MB-231 cells (immunoblot); assay type: cell-based; settings: HGF pulse
Experimental: as §1

[14] = test system: GTL16 cells; assay: Cell-proliferation assay in GTL16 cells; assay type: cell-based; settings: Homo sapiens, GTL 16
Experimental: Cell Proliferation Assays
Following PROTAC or diastereomer treatment of cells as indicated, culture medium was supplemented with 330 μg/ml MTS (Promega Corp., Madison, Wis.) and 25 μM phenazine methosulfate (Sigma, St. Louis, Mo.) and incubated at 37° C. Mitochondrial reduction of MTS to the formazan derivative was monitored by measuring the medium's absorbance at 490 nm using a Wallac Victor^2 platereader (Perkin-Elmer Life Sciences, Waltham, Mass.). Data analysis and statistics performed using Prism v7.0 software (GraphPad Software).

- EGFR degradation (immunoblot) [1]: sparing the WT EGFR
- degradation of L858R EGFR (immunoblot) [2]: enabled the degradation
- degradation of exon-19 deletion EGFR (immunoblot) [3]: enabled the degradation
SMILES: COc1cc2ncnc(Nc3ccc(F)c(Cl)c3)c2cc1OCCCCCOCCOCCC(=O)N[C@H](C(=O)N1C[C@H](O)C[C@H]1C(=O)NCc1ccc(-c2scnc2C)cc1)C(C)(C)C [PROTAC 3]

SMILES: COc1cc2ncnc(Nc3ccc(F)c(Cl)c3)c2cc1NC(=O)/C=C/CN(C)CCCOCCCOCC(=O)N[C@H](C(=O)N1CC(O)C[C@@H]1C(=O)NCc1ccc(-c2scnc2C)cc1)C(C)(C)C (some centres unmarked) [compound 48]
- pIC50 [4]: 4.70
- pIC50 [5]: 6.92
- EGFR protein remaining, EGFR-wt [6]: B (≤80% and >50% EGFR protein remaining after 72 hours of incubation with the test compound at a concentration between 300 nM and 10 nM)
- EGFR protein remaining, EGFR-Δ19 [7]: A (≤50% EGFR protein remaining after 72 hours of incubation with the test compound at a concentration between 300 nM and 10 nM)
- EGFR protein remaining, EGFR L858R/T790M double mutant [8]: B (≤80% and >50% EGFR protein remaining after 72 hours of incubation with the test compound at a concentration between 300 nM and 10 nM)
- EGFR protein remaining, EGFR Exon 20 ASV [9]: C (>80% EGFR protein remaining after 72 hours of incubation with the test compound at a concentration of 300 nM)
- pIC50 [10]: 5.52
- pIC50 [11]: 8.33
- pIC50 [12]: 5.15

SMILES: COc1cc2c(Oc3ccc(N(C(=O)C4(C(N)=O)CC4)c4ccc(F)cc4)cc3F)ccnc2cc1OCCCOCCCOCCC(=O)N[C@H](C(=O)N1C[C@@H](O)C[C@H]1C(=O)NCc1ccc(-c2scnc2C)cc1)C(C)(C)C (single isomer, unassigned) [diastereomer 8]
- fold higher concentration than PROTAC 7 required to completely inhibit agonist-driven AKT phosphorylation [13]: approximately 10 fold
- pIC50 [14]: 6.81
